Measured values published in patent US20070208001A1, “Modulators of 11- beta hydroxyl steroid dehydrogenase type 1, pharmaceutical compositions thereof, and methods of using the same” (priority 2006, published 2007).

Tests used:
[1] = biological target: T1, human 11βHSD1 (Homo sapiens, UniProt P28845); experiment: Enzymatic assay of 11βHSD1 (Scintillation Proximity Assay, clarified lysates); type: biochemical; conditions: SPA, HEK-293 lysate expressing full-length human 11βHSD1, 25 nM 3H-cortisone, 400 μM NADPH, 37° C., one hour
T1 construct: made in house; host or cells: HEK-293 transient transfectants; clarified lysate, not purified
Protocol: Enzymatic assay of 11βHSD1
All in vitro assays were performed with clarified lysates as the source of 11βHSD1 activity. HEK-293 transient transfectants expressing an epitope-tagged version of full-length human 11βHSD1 were harvested by centrifugation. Roughly 2×10^7 cells were resuspended in 40 mL of lysis buffer (25 mM Tris-HCl, pH 7.5, 0.1 M NaCl, 1 mM MgCl2 and 250 mM sucrose) and lysed in a microfluidizer. Lysates were clarified by centrifugation and the supernatants were aliquoted and frozen.
Inhibition of 11βHSD1 by test compounds was assessed in vitro by a Scintillation Proximity Assay (SPA). Dry test compounds were dissolved at 5 mM in DMSO. These were diluted in DMSO to suitable concentrations for the SPA assay. 0.8 μL of 2-fold serial dilutions of compounds were dotted on 384 well plates in DMSO such that 3 logs of compound concentration were covered. 20 μL of clarified lysate was added to each well. Reactions were initiated by addition of 20 μL of substrate-cofactor mix in assay buffer (25 mM Tris-HCl, pH 7.5, 0.1 M NaCl, 1 mM MgCl2) to final concentrations of 400 μM NADPH, 25 nM ^3H-cortisone and 0.007% Triton X-100. Plates were incubated at 37° C. for one hour. […] Quenched plates were incubated for a minimum of 30 minutes at RT prior to reading on a Topcount scintillation counter. […]

[2] = system: healthy volunteers; conditions: after seven days of carbenoxolone treatment; cited from earlier work

T1 sequence (P28845 whole entry): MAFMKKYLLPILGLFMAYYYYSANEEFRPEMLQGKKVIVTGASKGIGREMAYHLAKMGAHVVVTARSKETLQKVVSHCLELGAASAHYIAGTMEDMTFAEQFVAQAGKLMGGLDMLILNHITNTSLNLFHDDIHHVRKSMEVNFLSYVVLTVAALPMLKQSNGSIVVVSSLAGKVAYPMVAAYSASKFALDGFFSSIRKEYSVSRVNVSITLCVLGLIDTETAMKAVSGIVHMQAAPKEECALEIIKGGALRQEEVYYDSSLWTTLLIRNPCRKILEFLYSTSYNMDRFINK

IC50 [1]	SMILES	IOP was reduced by [2]
< 5 µM	CC(=O)N1CCC2(CC(C3(c4ccc(Cl)cc4)CC3)=NO2)C1 (centres unmarked) [Example 1, 7-Acetyl-3-[1-(4-chlorophenyl)cyclopropyl]-1-oxa-2,7-diazaspiro[4.4]non-2-ene]	
	CC1(C)[C@@H](OC(=O)CCC(=O)O)CC[C@]2(C)[C@H]3C(=O)C=C4[C@@H]5C[C@@](C)(C(=O)O)CC[C@]5(C)CC[C@@]4(C)[C@]3(C)CC[C@@H]12 [carbenoxolone]	18%
